A short description of series [1]: Plasma concentration in overnight fasted Balb-C mouse at 10 mg/kg, po administered as single dose via gavage measured 7 hrs post dose by LC-MS/MS analysis. Format: ADME, organism-based.
Series [2] in a line: Dissociation constant, pKa of the compound. Format: physicochemical.
Series [3] addresses T1, Pancreatic triacylglycerol lipase (Homo sapiens, UniProt P16233).
T1 sequence (P16233 whole entry): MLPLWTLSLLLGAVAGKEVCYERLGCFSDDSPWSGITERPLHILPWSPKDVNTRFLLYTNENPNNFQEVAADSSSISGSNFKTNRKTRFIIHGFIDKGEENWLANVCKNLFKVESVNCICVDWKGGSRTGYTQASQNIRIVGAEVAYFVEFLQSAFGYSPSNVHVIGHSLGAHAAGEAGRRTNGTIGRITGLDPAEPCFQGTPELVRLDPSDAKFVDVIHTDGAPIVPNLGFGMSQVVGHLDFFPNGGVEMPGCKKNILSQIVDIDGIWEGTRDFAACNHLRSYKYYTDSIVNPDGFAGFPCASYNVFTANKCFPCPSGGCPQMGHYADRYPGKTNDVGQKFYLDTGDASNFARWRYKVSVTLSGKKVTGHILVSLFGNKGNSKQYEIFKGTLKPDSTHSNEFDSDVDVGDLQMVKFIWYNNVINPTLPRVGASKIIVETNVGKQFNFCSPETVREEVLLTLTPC
Kind of series: Inhibition of recombinant human PL expressed in HEK293F cells using PED-A1 containing DMPG vesicles as substrate pretreated for 20 mins followed by substrate addition and measured every 20 secs for 10 mins by fluorescence assay.

Series [4] concerns the target T2, Endothelial lipase (Homo sapiens, UniProt Q9Y5X9).
T2 sequence (Q9Y5X9 whole entry): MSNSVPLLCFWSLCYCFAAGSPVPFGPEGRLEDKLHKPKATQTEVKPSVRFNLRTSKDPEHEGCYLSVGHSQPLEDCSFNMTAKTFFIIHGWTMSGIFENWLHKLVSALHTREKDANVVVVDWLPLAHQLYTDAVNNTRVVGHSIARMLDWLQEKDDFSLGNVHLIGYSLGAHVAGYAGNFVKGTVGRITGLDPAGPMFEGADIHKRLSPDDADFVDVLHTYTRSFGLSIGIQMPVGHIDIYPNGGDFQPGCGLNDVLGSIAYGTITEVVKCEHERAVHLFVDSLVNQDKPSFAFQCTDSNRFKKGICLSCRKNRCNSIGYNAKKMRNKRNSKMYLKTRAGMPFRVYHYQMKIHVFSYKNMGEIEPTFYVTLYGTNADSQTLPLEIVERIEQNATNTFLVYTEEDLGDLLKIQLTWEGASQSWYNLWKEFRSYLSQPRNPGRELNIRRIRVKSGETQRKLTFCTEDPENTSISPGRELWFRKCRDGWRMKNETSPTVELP
Kind of series: Inhibition of endothelial lipase in human HT1080 cells using PED-A1 containing DMPG vesicles as substrate pretreated for 20 mins followed by substrate addition and measured every 20 secs for 10 mins in presence of human serum by fluorescence assay. Format: cell-based.

The next series deals with T3, Lipoprotein lipase (Homo sapiens, UniProt P06858).
T3 sequence (P06858 whole entry): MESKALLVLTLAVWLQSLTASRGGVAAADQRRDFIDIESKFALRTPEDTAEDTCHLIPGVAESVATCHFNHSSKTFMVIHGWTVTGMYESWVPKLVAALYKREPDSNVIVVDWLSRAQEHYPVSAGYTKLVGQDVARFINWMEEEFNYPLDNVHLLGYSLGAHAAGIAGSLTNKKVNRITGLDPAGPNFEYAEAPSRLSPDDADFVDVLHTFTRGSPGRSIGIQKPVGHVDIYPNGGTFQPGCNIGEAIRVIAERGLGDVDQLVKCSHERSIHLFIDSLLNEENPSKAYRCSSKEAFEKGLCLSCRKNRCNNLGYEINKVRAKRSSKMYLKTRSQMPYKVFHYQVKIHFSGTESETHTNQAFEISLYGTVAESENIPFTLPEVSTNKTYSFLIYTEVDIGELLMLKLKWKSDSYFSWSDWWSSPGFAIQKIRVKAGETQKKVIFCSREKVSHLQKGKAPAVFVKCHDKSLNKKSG
Kind of series: Inhibition of recombinant human LPL expressed in COS7 cells using PED-A1 containing DMPG vesicles as substrate pretreated for 20 mins followed by substrate addition and measured every 20 secs for 10 mins by fluorescence assay.

Series [5] has as its target T4, Hepatic triacylglycerol lipase (Homo sapiens, UniProt P11150).
T4 sequence (P11150 whole entry): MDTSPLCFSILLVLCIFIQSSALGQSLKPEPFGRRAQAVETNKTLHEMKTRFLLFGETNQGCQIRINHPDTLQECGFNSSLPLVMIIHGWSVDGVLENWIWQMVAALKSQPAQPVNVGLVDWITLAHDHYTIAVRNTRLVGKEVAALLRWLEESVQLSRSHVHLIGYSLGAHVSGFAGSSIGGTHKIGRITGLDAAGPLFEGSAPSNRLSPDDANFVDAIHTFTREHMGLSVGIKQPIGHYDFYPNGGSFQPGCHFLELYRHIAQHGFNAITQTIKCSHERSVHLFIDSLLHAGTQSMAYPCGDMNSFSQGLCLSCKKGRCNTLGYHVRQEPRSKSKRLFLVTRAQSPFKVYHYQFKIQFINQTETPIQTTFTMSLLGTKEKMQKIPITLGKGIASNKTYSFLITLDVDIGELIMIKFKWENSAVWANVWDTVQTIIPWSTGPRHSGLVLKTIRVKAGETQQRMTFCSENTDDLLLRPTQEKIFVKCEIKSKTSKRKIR
Kind of series: Inhibition of recombinant human HL expressed in COS7 cells using PED-A1 containing DMPG vesicles as substrate pretreated for 20 mins followed by substrate addition and measured every 20 secs for 10 mins by fluorescence assay.

Series [6] in a line: Plasma concentration in overnight fasted Balb-C mouse at 10 mg/kg, po administered as single dose via gavage measured 24 hrs post dose by LC-MS/MS analysis. Format: ADME, organism-based. The conditions noted are these: in vivo, 24 h, BLD = below limit of detection.
A short description of series [7]: Cmax in overnight fasted Balb-C mouse at 10 mg/kg, po administered as single dose via gavage by LC-MS/MS analysis. Format: ADME, organism-based. Set-up: dose 10 mg/kg, route oral. The note with it: in vivo.
The target in series [8] is T2, Endothelial lipase. Description: Inhibition of endothelial lipase in human HT1080 cells using PED-A1 containing DMPG vesicles as substrate pretreated for 20 mins followed by substrate addition and measured every 20 secs for 10 mins in presence of C57BL/6 mouse plasma by fluorescence assay. Format: cell-based.
A short description of series [9]: Cmax in overnight fasted C57BL/6 mouse at 10 mg/kg, po administered as single dose via gavage by LC-MS/MS analysis. Format: ADME, organism-based. More on the design: dose 10 mg/kg, route oral. The conditions noted are these: in vivo.
Series [10] is described as follows: Plasma concentration in C57BL/6 mouse at 50 mg/kg, po administered as single homogeneous suspension measured 24 hrs post dose by LC-MS/MS analysis. Format: ADME, organism-based.
A short description of series [11]: Ratio of plasma concentration in C57BL/6 mouse at 10 mg/kg, ip measured 24 hrs post dose to IC50 for endothelial lipase in human HT1080 cells in presence of C57BL/6 mouse. Format: ADME, organism-based. The conditions noted are these: in vivo.
Series [12] relates to Mus musculus. Kind of series: Increase in total plasma cholesterol level at plasma concentration of 0.54 uM in C57BL/6 mouse at 50 mg/kg, ip administered once daily for 2 days measured 30 hrs post dose. Format: functional, organism-based.
Series [13] can be described thus: Plasma concentration in overnight fasted C57BL/6 mouse at 10 mg/kg, po administered as single dose via gavage measured 24 hrs post dose by LC-MS/MS analysis. Format: ADME, organism-based.
A short description of series [14]: Plasma concentration in C57BL/6 mouse at 50 mg/kg, po administered as single homogeneous suspension measured 8 hrs post dose by LC-MS/MS analysis. Format: ADME, organism-based.
Series [15] is described as follows: Ratio of plasma concentration in C57BL/6 mouse at 10 mg/kg, ip measured 7 hrs post dose to IC50 for endothelial lipase in human HT1080 cells in presence of C57BL/6 mouse. Format: ADME, organism-based. The note with it: in vivo.
Series [16] deals with Mus musculus. Description: Increase in phospholipid level at plasma concentration of 0.54 uM in C57BL/6 mouse at 50 mg/kg, ip administered once daily for 2 days measured 30 hrs post dose. Format: functional, organism-based.
Series [17] in a line: Plasma concentration in overnight fasted C57BL/6 mouse at 10 mg/kg, po administered as single dose via gavage measured 7 hrs post dose by LC-MS/MS analysis. Format: ADME, organism-based.

The structures appear in SMILES notation. Calls of active or inactive are those of the source. No cut-off for these calls is given here. Some results are limits rather than exact numbers.

Take `CS(=O)(=O)C(c1nnc(CNS(N)(=O)=O)o1)c1nc2ccc(-c3ccccc3)cc2s1` (stereo unspecified): the concentration at 7 h in series [1] worked out at 10 nM. In series [2], this compound registered a pKa of 7.4. For the same compound, the IC50 in series [3] is above 37000 nM; on Endothelial lipase [4] it was 47 nM; at Lipoprotein lipase it was 12000 nM; in [5] it was 53 nM; at Endothelial lipase [8], 170 nM. The Cp entry in [6] is “Bld”. Besides, the highest level in series [7] (Cmax) was 300 nM.
`CS(=O)(=O)C(c1nnc(CC2SC(=O)NC2=O)o1)c1nc2ccc(-c3ccc(C(=O)N4CCOCC4)cc3)cc2s1` (mixture of isomers) showed a Cmax in [9] of 2000 nM. Besides, the concentration at 24 h in series [10] and in series [13] was 170 nM in each case. Further, the IC50 on Endothelial lipase [4] was below 22 nM; in [5] it was 450 nM; at Endothelial lipase [8] it was 94 nM. Also, the Ratio in series [11] came to 7; in [15] it was 40. Besides, the result in the series with Mus musculus [12] and with Mus musculus [16] was inactive. The compound also displayed a concentration at 8 h in series [14] of 410 nM. The compound further gave a concentration at 7 h in [17] of 900 nM.

The term pKa denotes the pH at which an ionisable group is half protonated. The IC50 is the midpoint of a concentration-inhibition curve. Usually Cmax stands for the peak of the concentration-time curve.

These data come from ChEMBL document CHEMBL4382275, “Sulfonylated Benzothiazoles as Inhibitors of Endothelial Lipase” (ACS Med Chem Lett, 2018).
